In ChEMBL document CHEMBL2331514, “Structure-based design and synthesis of novel pseudosaccharine derivatives as antiproliferative agents and kinase inhibitors” (Eur J Med Chem, 2013):

Experiments:
Assay type in all cases: functional
T47D = experiment: Cytotoxicity against human T47D cells assessed as growth inhibition at 10 uM after 48 hrs by SRB assay; settings: read-out: GI
Hs-578T = experiment: Cytotoxicity against human Hs578T cells assessed as growth inhibition at 10 uM after 48 hrs by SRB assay; settings: read-out: GI
BT-549 = experiment: Cytotoxicity against human BT549 cells assessed as growth inhibition at 10 uM after 48 hrs by SRB assay; settings: BT-549, 48 h, read-out: GI
MDA-MB-231 = experiment: Cytotoxicity against human MDA-MB-231 cells assessed as growth inhibition at 10 uM after 48 hrs by SRB assay; settings: MDA-MB-231, 48 h, read-out: GI
MCF7 = experiment: Cytotoxicity against human MCF7 cells assessed as growth inhibition at 10 uM after 48 hrs by SRB assay; settings: MCF7, 48 h, read-out: GI
PC-3 = experiment: Cytotoxicity against human PC3 cells assessed as growth inhibition at 10 uM after 48 hrs by SRB assay; settings: PC-3, 48 h, read-out: GI
UO-31 = experiment: Cytotoxicity against human UO31 cells assessed as growth inhibition at 10 uM after 48 hrs by SRB assay; settings: UO-31, 48 h, read-out: GI
TK-10 = experiment: Cytotoxicity against human TK10 cells assessed as growth inhibition at 10 uM after 48 hrs by SRB assay; settings: TK-10, 48 h, read-out: GI
RXF 393 = experiment: Cytotoxicity against human RXF393 cells assessed as growth inhibition at 10 uM after 48 hrs by SRB assay; settings: RXF 393, 48 h, read-out: GI
CAKI-1 = experiment: Cytotoxicity against human Caki1 cells assessed as growth inhibition at 10 uM after 48 hrs by SRB assay; settings: CAKI-1, 48 h, read-out: GI
ACHN = experiment: Cytotoxicity against human ACHN cells assessed as growth inhibition at 10 uM after 48 hrs by SRB assay; settings: read-out: GI
A498 = experiment: Cytotoxicity against human A498 cells assessed as growth inhibition at 10 uM after 48 hrs by SRB assay; settings: A498, 48 h, read-out: GI
786-0 = experiment: Cytotoxicity against human 786-0 cells assessed as growth inhibition at 10 uM after 48 hrs by SRB assay; settings: 786-0, 48 h, read-out: GI
SK-OV-3 = experiment: Cytotoxicity against human SKOV3 cells assessed as growth inhibition at 10 uM after 48 hrs by SRB assay; settings: SK-OV-3, 48 h, read-out: GI
[1] = Cytotoxicity against human NCI-ADR-RES cells assessed as growth inhibition at 10 uM after 48 hrs by SRB assay; settings: read-out: GI
OVCAR-8 = experiment: Cytotoxicity against human OVCAR8 cells assessed as growth inhibition at 10 uM after 48 hrs by SRB assay; settings: OVCAR-8, 48 h, read-out: GI
OVCAR-5 = experiment: Cytotoxicity against human OVCAR5 cells assessed as growth inhibition at 10 uM after 48 hrs by SRB assay; settings: OVCAR-5, 48 h, read-out: GI
OVCAR-3 = experiment: Cytotoxicity against human OVCAR3 cells assessed as growth inhibition at 10 uM after 48 hrs by SRB assay; settings: OVCAR-3, 48 h, read-out: GI
UACC-62 = experiment: Cytotoxicity against human UACC62 cells assessed as growth inhibition at 10 uM after 48 hrs by SRB assay; settings: UACC-62, 48 h, read-out: GI
UACC-257 = experiment: Cytotoxicity against human UACC257 cells assessed as growth inhibition at 10 uM after 48 hrs by SRB assay; settings: UACC-257, 48 h, read-out: GI
SK-MEL-5 = experiment: Cytotoxicity against human SK-MEL-5 cells assessed as growth inhibition at 10 uM after 48 hrs by SRB assay; settings: SK-MEL-5, 48 h, read-out: GI
MDA-MB-435 = experiment: Cytotoxicity against human MDA-MB-435 cells assessed as growth inhibition at 10 uM after 48 hrs by SRB assay; settings: MDA-MB-435, 48 h, read-out: GI
Malme-3M = experiment: Cytotoxicity against human MALME-3M cells assessed as growth inhibition at 10 uM after 48 hrs by SRB assay; settings: read-out: GI
LOX IMVI = experiment: Cytotoxicity against human LOXIMVI cells assessed as growth inhibition at 10 uM after 48 hrs by SRB assay; settings: read-out: GI
U-251 = experiment: Cytotoxicity against human U251 cells assessed as growth inhibition at 10 uM after 48 hrs by SRB assay; settings: U-251, 48 h, read-out: GI
SNB-19 = experiment: Cytotoxicity against human SNB19 cells assessed as growth inhibition at 10 uM after 48 hrs by SRB assay; settings: SNB-19, 48 h, read-out: GI
SF-539 = experiment: Cytotoxicity against human SF539 cells assessed as growth inhibition at 10 uM after 48 hrs by SRB assay; settings: SF-539, 48 h, read-out: GI
SF-268 = experiment: Cytotoxicity against human SF268 cells assessed as growth inhibition at 10 uM after 48 hrs by SRB assay; settings: SF-268, 48 h, read-out: GI
SW-620 = experiment: Cytotoxicity against human SW620 cells assessed as growth inhibition at 10 uM after 48 hrs by SRB assay; settings: SW-620, 48 h, read-out: GI
KM12 = experiment: Cytotoxicity against human KM12 cells assessed as growth inhibition at 10 uM after 48 hrs by SRB assay; settings: KM12, 48 h, read-out: GI
HCT-15 = experiment: Cytotoxicity against human HCT15 cells assessed as growth inhibition at 10 uM after 48 hrs by SRB assay; settings: HCT-15, 48 h, read-out: GI
COLO 205 = experiment: Cytotoxicity against human COLO205 cells assessed as growth inhibition at 10 uM after 48 hrs by SRB assay; settings: COLO 205, 48 h, read-out: GI
NCI-H522 = experiment: Cytotoxicity against human NCI-H522 cells assessed as growth inhibition at 10 uM after 48 hrs by SRB assay; settings: NCI-H522, 48 h, read-out: GI
NCI-H460 = experiment: Cytotoxicity against human NCI-H460 cells assessed as growth inhibition at 10 uM after 48 hrs by SRB assay; settings: NCI-H460, 48 h, read-out: GI
NCI-H322M = experiment: Cytotoxicity against human NCI-H322M cells assessed as growth inhibition at 10 uM after 48 hrs by SRB assay; settings: read-out: GI
NCI-H23 = experiment: Cytotoxicity against human NCI-H23 cells assessed as growth inhibition at 10 uM after 48 hrs by SRB assay; settings: NCI-H23, 48 h, read-out: GI
HOP-92 = experiment: Cytotoxicity against human HOP92 cells assessed as growth inhibition at 10 uM after 48 hrs by SRB assay; settings: HOP-92, 48 h, read-out: GI
RPMI-8226 = experiment: Cytotoxicity against human RPMI8226 cells assessed as growth inhibition at 10 uM after 48 hrs by SRB assay; settings: RPMI-8226, 48 h, read-out: GI

## O=C(Nc1ccc(OC2=NS(=O)(=O)c3ccccc32)cc1)Nc1ccccc1Cl
T47D
  inhibition of growth at 10 µM: 8%
Hs-578T
  inhibition of growth at 10 µM: -1%
BT-549
  inhibition of growth at 10 µM: 22%
MDA-MB-231
  inhibition of growth at 10 µM: 63%
MCF7
  inhibition of growth at 10 µM: 23%
PC-3
  inhibition of growth at 10 µM: 9%
UO-31
  inhibition of growth at 10 µM: 33%
TK-10
  inhibition of growth at 10 µM: -17%
RXF 393
  inhibition of growth at 10 µM: 10%
CAKI-1
  inhibition of growth at 10 µM: 6%
ACHN
  inhibition of growth at 10 µM: 21%
A498
  inhibition of growth at 10 µM: 5%
786-0
  inhibition of growth at 10 µM: 11%
SK-OV-3
  inhibition of growth at 10 µM: -7%
[1]
  inhibition of growth at 10 µM: 13%
OVCAR-8
  inhibition of growth at 10 µM: 1%
OVCAR-5
  inhibition of growth at 10 µM: 3%
OVCAR-3
  inhibition of growth at 10 µM: 3%
UACC-62
  inhibition of growth at 10 µM: 16%
UACC-257
  inhibition of growth at 10 µM: -17%
SK-MEL-5
  inhibition of growth at 10 µM: 9%
MDA-MB-435
  inhibition of growth at 10 µM: 5%
Malme-3M
  inhibition of growth at 10 µM: 2%
LOX IMVI
  inhibition of growth at 10 µM: 15%
U-251
  inhibition of growth at 10 µM: 0%
SNB-19
  inhibition of growth at 10 µM: -9%
SF-539
  inhibition of growth at 10 µM: 6%
SF-268
  inhibition of growth at 10 µM: 14%
SW-620
  inhibition of growth at 10 µM: -5%
KM12
  inhibition of growth at 10 µM: 10%
HCT-15
  inhibition of growth at 10 µM: 8%
COLO 205
  inhibition of growth at 10 µM: -17%
NCI-H522
  inhibition of growth at 10 µM: 10%
NCI-H460
  inhibition of growth at 10 µM: -4%
NCI-H322M
  inhibition of growth at 10 µM: 2%
NCI-H23
  inhibition of growth at 10 µM: 8%
HOP-92
  inhibition of growth at 10 µM: -3%
RPMI-8226
  inhibition of growth at 10 µM: 7%

## Cc1ccc(NC2=NS(=O)(=O)c3ccc(NC(=O)CCC(=O)O)cc32)cc1
T47D
  inhibition of growth at 10 µM: 5%
Hs-578T
  inhibition of growth at 10 µM: -2%
BT-549
  inhibition of growth at 10 µM: -8%
MDA-MB-231
  inhibition of growth at 10 µM: 6%
MCF7
  inhibition of growth at 10 µM: 8%
PC-3
  inhibition of growth at 10 µM: -2%
UO-31
  inhibition of growth at 10 µM: 12%
TK-10
  inhibition of growth at 10 µM: -16%
RXF 393
  inhibition of growth at 10 µM: -4%
CAKI-1
  inhibition of growth at 10 µM: 1%
ACHN
  inhibition of growth at 10 µM: -5%
A498
  inhibition of growth at 10 µM: -14%
786-0
  inhibition of growth at 10 µM: 2%
SK-OV-3
  inhibition of growth at 10 µM: -11%
[1]
  inhibition of growth at 10 µM: -3%
OVCAR-8
  inhibition of growth at 10 µM: -10%
OVCAR-5
  inhibition of growth at 10 µM: 1%
OVCAR-3
  inhibition of growth at 10 µM: -16%
UACC-62
  inhibition of growth at 10 µM: 6%
UACC-257
  inhibition of growth at 10 µM: -25%
SK-MEL-5
  inhibition of growth at 10 µM: 5%
MDA-MB-435
  inhibition of growth at 10 µM: 0%
Malme-3M
  inhibition of growth at 10 µM: -1%
LOX IMVI
  inhibition of growth at 10 µM: 1%
U-251
  inhibition of growth at 10 µM: 0%
SNB-19
  inhibition of growth at 10 µM: 1%
SF-539
  inhibition of growth at 10 µM: 1%
SF-268
  inhibition of growth at 10 µM: -10%
SW-620
  inhibition of growth at 10 µM: 1%
KM12
  inhibition of growth at 10 µM: -13%
HCT-15
  inhibition of growth at 10 µM: -13%
COLO 205
  inhibition of growth at 10 µM: -11%
NCI-H522
  inhibition of growth at 10 µM: -8%
NCI-H460
  inhibition of growth at 10 µM: -7%
NCI-H322M
  inhibition of growth at 10 µM: 2%
NCI-H23
  inhibition of growth at 10 µM: 1%
HOP-92
  inhibition of growth at 10 µM: 9%
RPMI-8226
  inhibition of growth at 10 µM: 7%
